Measurements as given in patent US9737493B2, “Compositions and methods for modulating DNMT1 inhibitor activity” (University of Louisville Research Foundation, Inc., priority 2012, dated 2017).

Columns and labels:
[1] = DTNB assay for free sulfhydryls; settings: 5 mM XB05; 0.25 mM Cys or GSH, pH 8, 30 min, 37° C.
Method: FIG. 12: XB05 is Weakly Reactive with Thiols In Vitro: 0.25 mM Cysteine (Cys, top panel) or glutathione (GSH, bottom panel) were incubated with XB05, diethyl maleate (DEM), or maleimide at the indicated concentrations, or with an equivalent amount of vehicle (DMSO), for 30 min at 37° C. 5,5′-Dithiobis-2-nitrobenzoic acid (DTNB) assays were conducted as described in Methods. Absorbance for triplicate wells was determined at 412 nm. Points represent the mean and standard deviation for triplicate wells. Data shown are representative of two independent experiments.
Dithiobis-2-nitrobenzoic Acid (DTNB) Assay for Free Sulfhydryls. For each experiment, a 20× working solution of DTNB (2 mM DTNB, 50 mM sodium acetate in 100 mM Tris-HCl, pH 8.0) and 2× solutions of cysteine and GSH (0.5 mM in 100 mM Tris-HCl, pH 8.0) were freshly prepared. 10 mM stock solutions of XB05, diethyl maleate and maleimide were prepared in 100% DMSO, and subsequently serially diluted to 2× working solutions in 100 mM Tris-HCl, pH 8.0. 100 μl each of thiol compounds (final concentration 0.25 mM) and thiol-reactive compounds (final concentrations 0.05-5 mM) or vehicle control (DMSO) were added in duplicate to a 96-well plate and allowed to incubate at 37° C. for 30 minutes. […] Absorbance was read on a Biotek HT Synergy Plate reader (Winooski, Vt.) at 412 nm.

U937 cells = assay: GSH-Glo reduced glutathione content assay; assay type: cell-based, human; settings: U937, 1 μM XB05, 24 h
Method: (§1) FIG. 8: XB05 Modulates Cellular Stress Responses. (A) A luminescence-based assay for reduced glutathione (GSH) content in cells treated 24 h with XB05 (1 μM for U937 and Hs27, or 2 μM for A549), in the absence or presence of 5 mM GSH. Some cells were treated with buthionine sulfoximine (BSO, 200 μM) plus diethyl maleate (DEM, 1 mM) for 3 h as a positive control for GSH depletion. Bar graph indicates mean+/−SEM from three independent experiments. […] (C) Western blot for Nrf2 in nuclear extracts from cells treated as in part A for either 8 h or 24 h. Membranes were stripped and reprobed for Ku-70 as a loading control. (D) Western blot for phospho-eIF2α (Ser51), total eIF2-α, BiP/Grp78, and GAPDH (loading control) in whole cell extracts from cell lines treated as indicated for 24 h with concentrations of XB05 described in part A. Thapsigargin (TG, 2 μM) was used as a positive control for induction of endoplasmic reticulum (ER) stress.
(§2) Reduced Glutathione Content Analyses. After treatment as indicated in the figures and in the Brief Description of the Drawings, cells were harvested as described, counted and dispensed at a density of 10,000 cells/well in triplicate on a 96-well white, opaque bioluminescence plate (Corning). Cellular content of reduced glutathione (GSH) was analyzed using the GSH-Glo® Glutathione Assay Kit (Promega) according to the manufacturer's instructions. The chemiluminescent signal was quantified on a Biotek Synergy HT plate-reader (Biotek, Winooski, Vt.) using an integration time of 1 s/well.

Hs27 cells = assay: GSH-Glo reduced glutathione content assay; assay type: cell-based, human; settings: Hs27, 1 μM XB05, 24 h
Method: as §1, §2

A549 cells = assay: GSH-Glo reduced glutathione content assay; assay type: cell-based, human; settings: A549, 2 μM XB05, 24 h
Method: as §1, §2

recombinant human DNMT1 = recombinant human DNMT1 (Homo sapiens, UniProt P26358); assay: DNMT1 activity assay; assay type: biochemical; settings: recombinant human DNMT1 or nuclear extracts from treated cells
Source text: The assays use recombinant Human DNMT1 (FIG. 19A) or nuclear extracts prepared from cells treated with XB05 (BX11) or 5-Aza (5-azacytidine) (FIG. 19B).

recombinant human DNMT1, sequence (P26358 whole entry): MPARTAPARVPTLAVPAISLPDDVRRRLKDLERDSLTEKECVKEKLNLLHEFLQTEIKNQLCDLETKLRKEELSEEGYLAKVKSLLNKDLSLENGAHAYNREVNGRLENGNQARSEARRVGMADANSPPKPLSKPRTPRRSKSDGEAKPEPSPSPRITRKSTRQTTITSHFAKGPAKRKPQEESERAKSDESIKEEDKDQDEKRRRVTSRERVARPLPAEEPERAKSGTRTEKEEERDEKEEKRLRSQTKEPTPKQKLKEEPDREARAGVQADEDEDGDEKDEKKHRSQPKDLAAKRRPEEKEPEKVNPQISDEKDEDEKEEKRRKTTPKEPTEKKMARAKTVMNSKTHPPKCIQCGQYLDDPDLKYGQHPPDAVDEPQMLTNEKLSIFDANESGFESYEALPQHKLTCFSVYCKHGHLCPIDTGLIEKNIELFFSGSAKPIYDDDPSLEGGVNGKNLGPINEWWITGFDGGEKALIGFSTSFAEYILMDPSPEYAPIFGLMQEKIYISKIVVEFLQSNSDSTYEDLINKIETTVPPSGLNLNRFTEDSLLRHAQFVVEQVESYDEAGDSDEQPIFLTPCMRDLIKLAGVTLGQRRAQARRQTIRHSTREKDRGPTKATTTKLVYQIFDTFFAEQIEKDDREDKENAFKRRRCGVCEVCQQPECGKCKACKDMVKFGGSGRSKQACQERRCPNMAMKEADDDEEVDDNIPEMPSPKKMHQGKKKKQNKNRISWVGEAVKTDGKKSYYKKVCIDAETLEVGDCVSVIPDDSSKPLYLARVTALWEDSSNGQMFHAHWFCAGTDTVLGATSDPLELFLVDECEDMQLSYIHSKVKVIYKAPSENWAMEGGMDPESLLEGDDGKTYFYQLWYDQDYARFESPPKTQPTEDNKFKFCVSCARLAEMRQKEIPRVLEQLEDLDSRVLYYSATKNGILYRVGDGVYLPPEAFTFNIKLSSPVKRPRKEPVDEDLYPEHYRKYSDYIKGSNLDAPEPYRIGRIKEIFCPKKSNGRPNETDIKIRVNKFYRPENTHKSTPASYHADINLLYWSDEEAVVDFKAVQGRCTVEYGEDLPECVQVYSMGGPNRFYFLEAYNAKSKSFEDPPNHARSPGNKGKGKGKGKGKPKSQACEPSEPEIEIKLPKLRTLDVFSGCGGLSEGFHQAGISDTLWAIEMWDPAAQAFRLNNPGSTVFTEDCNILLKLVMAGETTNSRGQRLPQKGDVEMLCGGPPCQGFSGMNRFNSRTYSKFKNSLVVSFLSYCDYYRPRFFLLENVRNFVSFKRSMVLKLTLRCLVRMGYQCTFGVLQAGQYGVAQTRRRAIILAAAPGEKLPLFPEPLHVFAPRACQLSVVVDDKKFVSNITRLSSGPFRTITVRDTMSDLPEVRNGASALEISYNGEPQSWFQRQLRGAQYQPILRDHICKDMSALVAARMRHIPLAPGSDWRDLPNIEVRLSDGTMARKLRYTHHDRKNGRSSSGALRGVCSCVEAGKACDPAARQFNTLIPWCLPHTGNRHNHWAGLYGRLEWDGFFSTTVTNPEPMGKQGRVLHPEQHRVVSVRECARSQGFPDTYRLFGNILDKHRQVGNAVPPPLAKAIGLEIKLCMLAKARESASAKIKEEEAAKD

effect on DNMT1 activity (recombinant human DNMT1): inhibitory effects
Structure (SMILES): CCCCCC(O)C#CC(F)(F)Br (centres unmarked) [XB05]
depletion of free thiols [1]: 40-50%
change in reduced GSH (U937 cells): depletion of reduced GSH
increase in GSH (Hs27 cells): ~2 fold
increase in GSH (A549 cells): approximately 1.3 fold
